Assay results as given in patent US11957687B2 (REGENERON PHARMACEUTICALS, INC., priority 2019, dated 2024).

Tests used:
Format in all cases: biochemical
[1] = target: HSD17B1 (Homo sapiens (Human), UniProt P14061); test: HSD17B1 enzymatic blocking assay; settings: 25 μM Estradiol, 500 μM NAD; read-out: Inhibition of HSD17B1 IC50
Experimental: To screen compounds of the disclosure for their ability to block HSD17B1 function, an enzymatic blocking assay was performed. For the assay, HSD17B1 activity was measured by detecting NADH formation from oxidation of Estradiol using a NADH Glo luminescence assay (Promega, #Cat. No. G9062). […] Compounds were incubated with the enzyme for 30 minutes at room temperature. […] DMSO at a concentration of 0.5% was used as a negative control and a ‘no substrate’ control was used a positive control in the assay. Detection reagent was then added as per manufacturer's instructions, and the plate was subsequently incubated in the dark for 1 hour at room temperature, NADH generated was detected in the luminescence mode on the Envision Perkin Elmer plate reader. The IC50 values were determined using Dotmatics analysis software.

[2] = target: HSD17B13 (Homo sapiens (Human), UniProt Q7Z5P4); test: HSD17B13 enzymatic inhibition assay (150 nM or 50 nM HSD17B13); settings: 50 nM HSD17B13; read-out: Inhibition of 50 nM of HSD17B13 IC50
[3] = target: HSD17B2 (Homo sapiens (Human), UniProt P37059); test: HSD17B2 enzymatic blocking assay; settings: 1.8 μM Estradiol, 650 μM NAD; read-out: Inhibition of HSD17B2 IC50
Experimental: To screen compounds of the disclosure for their ability to block HSD17B2 function, an enzymatic blocking assay was performed. For the assay, HSD17B2 activity was measured by detecting NADH formation from oxidation of Estradiol using a NADH Glo luminescence assay (Promega, #Cat. No. G9062). Compounds of the disclosure were evaluated in a dose titration assay where the compounds were titrated at 10-point dose curve using an Echo-555 liquid handling dispenser. HSD17B2 (SEQ ID NO: 3, expressed in mammalian cells) was added at a final concentration of 2 ng/μL in a buffer containing 50 mM Tris-HCl, pH 7.5, Pluronic F-127 0.05%, Tween20 0.01%, BSA 0.01% into a low volume white 384-well assay plate. Compounds were incubated with the enzyme for 15 min at 20° C. The assay reaction was then initiated by addition of 1.8 μM Estradiol substrate (Sigma, catalog #E2758-250MG, CAS: 50-28-2) and 650 μM NAD co-factor, and the reaction mixture was incubated for 45 min at 20° C. DMSO at a concentration of 0.5% was used as a negative control and a ‘no substrate’ control was used a positive control in the assay. Detection reagent was then added as per manufacturer's instructions, and the plate was subsequently incubated in the dark for 1 hour at room temperature, NADH generated was detected in the luminescence mode on the Envision Perkin Elmer plate reader. The IC50 values were determined using Dotmatics analysis software.

Sequence of HSD17B2 (P37059 other isoform, or with tags, fused parts or gaps): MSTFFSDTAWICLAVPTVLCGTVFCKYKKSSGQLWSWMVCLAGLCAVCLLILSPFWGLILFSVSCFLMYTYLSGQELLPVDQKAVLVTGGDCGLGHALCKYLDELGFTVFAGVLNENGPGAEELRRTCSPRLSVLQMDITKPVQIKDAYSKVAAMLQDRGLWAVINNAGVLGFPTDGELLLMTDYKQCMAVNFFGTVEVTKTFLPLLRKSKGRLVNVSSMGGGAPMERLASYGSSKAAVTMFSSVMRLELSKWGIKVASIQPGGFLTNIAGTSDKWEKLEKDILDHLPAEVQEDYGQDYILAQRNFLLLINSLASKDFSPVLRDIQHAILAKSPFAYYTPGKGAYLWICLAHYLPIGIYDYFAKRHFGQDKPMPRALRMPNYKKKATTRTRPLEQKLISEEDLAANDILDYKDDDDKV
Sequence of HSD17B13 (Q7Z5P4 other isoform, or with tags, fused parts or gaps): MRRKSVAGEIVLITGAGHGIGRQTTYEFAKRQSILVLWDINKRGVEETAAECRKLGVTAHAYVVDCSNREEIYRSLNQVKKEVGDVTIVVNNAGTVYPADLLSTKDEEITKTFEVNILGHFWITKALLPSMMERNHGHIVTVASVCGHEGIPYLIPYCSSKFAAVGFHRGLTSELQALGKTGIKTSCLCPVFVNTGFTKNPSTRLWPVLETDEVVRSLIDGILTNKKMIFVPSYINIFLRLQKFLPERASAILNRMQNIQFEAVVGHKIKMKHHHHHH
Sequence of HSD17B1 (P14061 other isoform, or with tags, fused parts or gaps): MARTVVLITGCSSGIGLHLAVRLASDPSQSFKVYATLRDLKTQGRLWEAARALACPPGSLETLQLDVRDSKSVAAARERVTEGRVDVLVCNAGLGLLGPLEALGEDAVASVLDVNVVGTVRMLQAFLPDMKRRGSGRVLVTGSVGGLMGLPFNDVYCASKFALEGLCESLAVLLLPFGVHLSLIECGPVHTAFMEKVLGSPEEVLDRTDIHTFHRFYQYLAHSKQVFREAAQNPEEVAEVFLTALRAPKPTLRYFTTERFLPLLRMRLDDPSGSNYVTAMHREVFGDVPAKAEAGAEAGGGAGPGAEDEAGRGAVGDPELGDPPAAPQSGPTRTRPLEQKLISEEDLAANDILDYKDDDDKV

C=Cc1cc(C(=O)NC2c3ccc(C)cc3Oc3cc(C)ccc32)c(=O)[nH]c1C(F)(F)F [Compound 182, N-(3,6-dimethyl-9H-xanthen-9-yl)-2-oxo-6-(trifluoromethyl)-5-vinyl-1,2-dihydropyridine-3-carboxamide]
IC50 [1]: 5.16 µM
IC50 [2]: 20 nM
IC50 [3]: 10.3 µM

COc1ccc2c(c1)C(NC(=O)c1ccc(C(F)(F)F)[nH]c1=O)c1ccccc1-2 (stereo not drawn) [Compound 416, N-(2-methoxy-9H-fluoren-9-yl)-2-oxo-6-(trifluoromethyl)-1,2-dihydropyridine-3-carboxamide]
IC50 [1]: 20 µM
IC50 [2]: 70 nM
IC50 [3]: 14.8 µM

CCCc1sc2cc(C)ccc2c1NC(=O)c1ccc(C(F)(F)F)[nH]c1=O [Compound 308, N-(6-methyl-2-propylbenzo[b]thiophen-3-yl)-2-oxo-6-(trifluoromethyl)-1,2-dihydropyridine-3-carboxamide]
IC50 [1]: 15.4 µM
IC50 [2]: 70 nM
IC50 [3]: 16.9 µM

Cc1ccc2c(c1)Oc1cc(C)ccc1C2NC(=O)c1cc(N2CCN(C)CC2)c(C(F)(F)F)[nH]c1=O [Compound 435, N-(3,6-dimethyl-9H-xanthen-9-yl)-5-(4-methylpiperazin-1-yl)-2-oxo-6-(trifluoromethyl)-1,2-dihydropyridine-3-carboxamide]
IC50 [1]: 23.5 µM
IC50 [2]: 110 nM
IC50 [3]: 59.4 µM

Cc1ccc2c(c1)Sc1cc(C)ccc1C2NC(=O)c1cc(-c2ccncc2)c(C(F)(F)F)[nH]c1=O [Compound 495, N-(3,6-dimethyl-9H-thioxanthen-9-yl)-6-oxo-2-(trifluoromethyl)-1,6-dihydro-[3,4′-bipyridine]-5-carboxamide]
IC50 [1]: 2.04 µM
IC50 [2]: 30 nM
IC50 [3]: 19.7 µM

N#Cc1ccc2c(c1)Oc1ccccc1C2NC(=O)c1ccc(C(F)(F)F)[nH]c1=O (stereo not drawn) [Compound 528, N-(3-cyano-9H-xanthen-9-yl)-2-oxo-6-(trifluoromethyl)-1,2-dihydropyridine-3-carboxamide]
IC50 [1]: 17 µM
IC50 [2]: 90 nM
IC50 [3]: 23.2 µM

CN1c2ccccc2C(NC(=O)c2ccc(C(F)(F)F)[nH]c2=O)c2ccccc21 [Compound 519, N-(10-methyl-9,10-dihydroacridin-9-yl)-2-oxo-6-(trifluoromethyl)-1,2-dihydropyridine-3-carboxamide]
IC50 [1]: 7.22 µM
IC50 [2]: 1350 nM
IC50 [3]: > 100 µM

Cc1ccc2c(c1)C(C)CCC2NC(=O)c1ccc(C(F)(F)F)[nH]c1=O (stereo not drawn) [Compound 302, N-(4,6-dimethyl-1,2,3,4-tetrahydronaphthalen-1-yl)-2-oxo-6-(trifluoromethyl)-1,2-dihydropyridine-3-carboxamide]
IC50 [1]: > 30 µM
IC50 [2]: 160 nM
IC50 [3]: 23 µM

CCCc1cc(CCC)cc(NC(=O)c2ccc(C(F)(F)F)[nH]c2=O)c1 [Compound 271, N-(3,5-dipropylphenyl)-2-oxo-6-(trifluoromethyl)-1,2-dihydropyridine-3-carboxamide]
IC50 [1]: 27.9 µM
IC50 [2]: 2110 nM
IC50 [3]: > 100 µM

O=C(NC1c2ccccc2-c2ccc(C(F)(F)F)cc21)c1ccc(C(F)(F)F)[nH]c1=O (stereo not drawn) [Compound 414, 2-oxo-6-(trifluoromethyl)-N-(2-(trifluoromethyl)-9H-fluoren-9-yl)-1,2-dihydropyridine-3-carboxamide]
IC50 [1]: 8.59 µM
IC50 [2]: 250 nM
IC50 [3]: 17.5 µM

Cc1ccc2c(c1)Oc1cc(C)ccc1C2NC(=O)c1cc(C2=CCN(C)CC2)c(C(F)(F)F)[nH]c1=O [Compound 501, N-(3,6-dimethyl-9H-xanthen-9-yl)-1′-methyl-6-oxo-2-(trifluoromethyl)-1,1′,2′,3′,6,6′-hexahydro-[3,4′-bipyridine]-5-carboxamide]
IC50 [1]: > 30 µM
IC50 [2]: 340 nM
IC50 [3]: 46 µM

Cc1cnc2c(c1)Oc1ccccc1C2NC(=O)c1ccc(C(F)(F)F)[nH]c1=O (stereo not drawn) [Compound 324, N-(3-methyl-10H-chromeno[3,2-b]pyridin-10-yl)-2-oxo-6-(trifluoromethyl)-1,2-dihydropyridine-3-carboxamide]
IC50 [1]: > 30 µM
IC50 [2]: 40 nM
IC50 [3]: 56.4 µM

Cc1ccc2c(c1)Oc1cc(C)ccc1C2NC(=O)c1cc(-c2ccncc2)c(C(F)(F)F)[nH]c1=O [Compound 504, N-(3,6-dimethyl-9H-xanthen-9-yl)-6-oxo-2-(trifluoromethyl)-1,6-dihydro-[3,4′-bipyridine]-5-carboxamide]
IC50 [1]: 19.7 µM
IC50 [2]: 60 nM
IC50 [3]: 39.4 µM

CCCC1CC(NC(=O)c2ccc(C(F)(F)F)[nH]c2=O)c2ccc(C)cc2O1 (stereo not drawn) [Compound 406, N-(7-methyl-2-propylchroman-4-yl)-2-oxo-6-(trifluoromethyl)-1,2-dihydropyridine-3-carboxamide]
IC50 [1]: 28.8 µM
IC50 [2]: 230 nM
IC50 [3]: 54 µM

Cc1ccc2c(c1)Oc1cc(C)ccc1C2NC(=O)c1cc(N2CCOCC2)c(C(F)(F)F)[nH]c1=O [Compound 438, N-(3,6-dimethyl-9H-xanthen-9-yl)-5-morpholino-2-oxo-6-(trifluoromethyl)-1,2-dihydropyridine-3-carboxamide]
IC50 [1]: 10.7 µM
IC50 [2]: 50 nM
IC50 [3]: 23.5 µM

CCc1sc2cc(C)ccc2c1NC(=O)c1ccc(C(F)(F)F)[nH]c1=O [Compound 309, N-(2-ethyl-6-methylbenzo[b]thiophen-3-yl)-2-oxo-6-(trifluoromethyl)-1,2-dihydropyridine-3-carboxamide]
IC50 [1]: 14.3 µM
IC50 [2]: 80 nM
IC50 [3]: 22.6 µM

Cc1ccc2c(c1)Oc1ccncc1C2NC(=O)c1ccc(C(F)(F)F)[nH]c1=O (stereo not drawn) [Compound 330, N-(7-methyl-10H-chromeno[3,2-c]pyridin-10-yl)-2-oxo-6-(trifluoromethyl)-1,2-dihydropyridine-3-carboxamide]
IC50 [1]: > 30 µM
IC50 [2]: 80 nM
IC50 [3]: 22.1 µM

Cc1ccc2c(c1)OC(C)CC2NC(=O)c1ccc(C(F)(F)F)[nH]c1=O (stereo not drawn) [Compound 405, N-(2,7-dimethylchroman-4-yl)-2-oxo-6-(trifluoromethyl)-1,2-dihydropyridine-3-carboxamide]
IC50 [1]: > 30 µM
IC50 [2]: 160 nM
IC50 [3]: > 100 µM

Cc1ccc(C(CC2CCCCC2)NC(=O)c2ccc(C(F)(F)F)[nH]c2=O)cc1 (stereo not drawn) [Compound 422, N-(2-cyclohexyl-1-(p-tolyl)ethyl)-2-oxo-6-(trifluoromethyl)-1,2-dihydropyridine-3-carboxamide]
IC50 [1]: 10.7 µM
IC50 [2]: 160 nM
IC50 [3]: 17.3 µM

Cc1ccc2c(c1)Oc1cc(C)ccc1C2NC(=O)c1cc(C2CCOCC2)c(C(F)(F)F)[nH]c1=O [Compound 461, N-(3,6-dimethyl-9H-xanthen-9-yl)-2-oxo-5-(tetrahydro-2H-pyran-4-yl)-6-(trifluoromethyl)-1,2-dihydropyridine-3-carboxamide]
IC50 [1]: 7.64 µM
IC50 [2]: 40 nM
IC50 [3]: 45.4 µM

C=CCc1cc(C(=O)NC2c3ccc(C)cc3Oc3cc(C)ccc32)c(=O)[nH]c1C(F)(F)F [Compound 511, 5-allyl-N-(3,6-dimethyl-9H-xanthen-9-yl)-2-oxo-6-(trifluoromethyl)-1,2-dihydropyridine-3-carboxamide]
IC50 [1]: 6.13 µM
IC50 [2]: 50 nM
IC50 [3]: 16.2 µM

Cc1ccc2c(c1)Sc1cc(C)ccc1C2NC(=O)c1ccc(C(F)F)[nH]c1=O [Compound 282, 6-(difluoromethyl)-N-(3,6-dimethyl-9H-thioxanthen-9-yl)-2-oxo-1,2-dihydropyridine-3-carboxamide]
IC50 [1]: > 30 µM
IC50 [2]: 140 nM
IC50 [3]: > 100 µM

Cc1ccc2c(c1)C(NC(=O)c1ccc(C(F)(F)F)[nH]c1=O)c1ccccc1-2 (stereo not drawn) [Compound 417, N-(2-methyl-9H-fluoren-9-yl)-2-oxo-6-(trifluoromethyl)-1,2-dihydropyridine-3-carboxamide]
IC50 [1]: 13.5 µM
IC50 [2]: 100 nM
IC50 [3]: 47.9 µM

CCC[C@@H]1Oc2ccc(C)cc2[C@@H]1NC(=O)c1ccc(C(F)(F)F)[nH]c1=O [Compound 354, N-((2S,3S)-5-methyl-2-propyl-2,3-dihydrobenzofuran-3-yl)-2-oxo-6-(trifluoromethyl)-1,2-dihydropyridine-3-carboxamide]
IC50 [1]: > 30 µM
IC50 [2]: 510 nM
IC50 [3]: 29.3 µM
